Test [1] concerns HeV-mediated fusion (HeLa cells expressing HeV F and G, U373 target cells).
In test [2] the test system is NiV-mediated fusion (HeLa cells expressing NiV F and G, U373 target cells).

With `CC[C@H](C)[C@H](NC(=O)[C@H](Cc1ccc(O)cc1)NC(=O)[C@H](CC(=O)O)NC(=O)[C@H](CCCCN)NC(=O)[C@H](CO)NC(=O)[C@H](CCC(N)=O)NC(=O)[C@H](CCC(N)=O)NC(=O)[C@H](CC(C)C)NC(=O)[C@H](CO)NC(=O)[C@H](CCC(N)=O)NC(=O)[C@H](CC(N)=O)NC(=O)[C@H](CCSC)NC(=O)[C@H](CO)NC(=O)[C@H](CO)NC(=O)[C@@H](NC(=O)[C@H](CCC(N)=O)NC(=O)[C@H](CO)NC(=O)[C@H](CO)NC(=O)[C@@H](NC(=O)[C@H](CC(=O)O)NC(=O)[C@@H](NC(=O)[C@H](CCCCN)NC(=O)[C@H](CC(=O)O)NC(=O)[C@@H](NC(=O)[C@H](Cc1ccccc1)NC(=O)[C@@H](NC(=O)[C@@H]1CCCN1C(=O)[C@@H]1CCCN1)C(C)C)[C@@H](C)O)C(C)C)[C@@H](C)CC)[C@@H](C)CC)C(=O)N[C@@H](CCCCN)C(=O)N[C@@H](CCC(=O)O)C(=O)N[C@@H](C)C(=O)N[C@@H](CCC(N)=O)C(=O)N[C@@H](CCCNC(=N)N)C(=O)N[C@@H](CC(C)C)C(=O)N[C@@H](CC(C)C)C(=O)N[C@@H](CC(=O)O)C(=O)N[C@H](C(=O)N[C@H](C(=O)N[C@@H](CC(N)=O)C(=O)N1CCC[C@H]1C(=O)N[C@@H](CO)C(=O)N[C@@H](CC(C)C)C(=O)O)C(C)C)[C@@H](C)O` [NiV FC1], in test [1], the IC50 (in general, the concentration at which inhibition is half-maximal) lay in the range of 5.2 to 5.8 nM and the “Inhibition of HeV-mediated fusion (in words)” value is on record as “completely inhibitory in the nM range”. In test [2], the IC50 was 5.2 to 5.8 nM and the “Inhibition of NiV-mediated fusion (in words)” value is “completely inhibitory in the nM range”.

(Values after patent US8114410B2, “Composition and methods for the inhibition of membrane fusion by paramyxoviruses” (priority 2001, dated 2012).)
